Values of other authors as cited in US8901128B2, “Pharmaceutical compositions of ranolazine” (Lupin Limited, priority 2009, dated 2014).

Columns and labels:
[1] = test system: humans suffering from angina; details: administered as an IR formulation; 120 mg three times daily
[2] = low pH that occurs in the stomach
[3] = in vivo

solubility [2]: relatively high | plasma half-life [3]: relatively short
Compound: COc1ccccc1OCC(O)CN1CCN(CC(=O)Nc2c(C)cccc2C)CC1 (racemic) [ranolazine, (±)-N-(2,6-dimethylphenyl)-4-[2-hydroxy-3-(2-methoxyphenoxy)-propyl]-1-piperazineacetamide]
antianginal and anti-ischemic efficacy [1]: ineffective
